A word on the IC50: it is the concentration that inhibits the measured activity by half.

Assay in all cases: Disruption of BRAF RBD interaction with Ras (FRET / MOA assay, with Cyclophilin A)
Holding throughout (format): biochemical

For one experiment, the target named is NRAS Q61R (Homo sapiens, UniProt P01111+P62937, Q61R). Conditions: NRAS Q61R; read-out: NRAS Q61R FRET data IC50. In a few lines:
(§1)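 TR-FRET in 25 mM HEPES pH 7.3, 100 mM NaCl, 5 mM MgCl2, 0.1% BSA: 25 μM Cyclophilin A, 12.5 nM His6-Ras-GMPPNP, 50 nM GST-BRAF RBD with compound (10-point 3-fold series from 30 μM), 3 h at 25° C. Anti-His Eu/anti-GST APC added, 1.5 h more; IC50 from decreased FRET ratio versus DMSO.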

The next experiment addresses KRAS G12C (Homo sapiens, UniProt P01116+P62937, G12C). Conditions: KRAS G12C; read-out: KRAS G12C FRET data IC50. In a few lines:
(§2)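 Here, compound titrations (ten points, factor 3, from 30 μM final) act on nucleotide-bound K-Ras and Cyclophilin A, and ternary complex formation disrupts the RAF RBD interaction.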

A further experiment has as its target KRAS G12V (Homo sapiens, UniProt P01116+P62937, G12V). As to conditions: KRAS G12V; read-out: KRAS G12V FRET data IC50. The procedure, abridged: as §2
The target in a further experiment is NRAS G12C (Homo sapiens, UniProt P01111+P62937, G12C). As to conditions: NRAS G12C; read-out: NRAS G12C FRET data IC50.
Sequence of NRAS G12C (P01111 whole entry G12C): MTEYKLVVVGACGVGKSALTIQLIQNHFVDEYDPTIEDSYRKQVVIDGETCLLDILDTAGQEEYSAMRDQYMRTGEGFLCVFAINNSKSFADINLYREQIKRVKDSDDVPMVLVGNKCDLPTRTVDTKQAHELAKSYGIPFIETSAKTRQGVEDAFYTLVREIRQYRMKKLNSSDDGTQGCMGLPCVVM
Sequence of NRAS G12C (P62937 whole entry): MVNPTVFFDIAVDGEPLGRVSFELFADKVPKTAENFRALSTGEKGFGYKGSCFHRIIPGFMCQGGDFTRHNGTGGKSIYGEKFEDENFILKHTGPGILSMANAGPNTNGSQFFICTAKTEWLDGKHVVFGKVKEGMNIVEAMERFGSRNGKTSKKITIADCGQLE
The target of a further experiment is KRAS G12D (Homo sapiens, UniProt P01116+P62937, G12D). Conditions: read-out: KRAS G12D FRET data, IC50. In a few lines: as §2
Sequence of KRAS G12D (P01116 1-169 isoform P01116-2 G12D limits assumed): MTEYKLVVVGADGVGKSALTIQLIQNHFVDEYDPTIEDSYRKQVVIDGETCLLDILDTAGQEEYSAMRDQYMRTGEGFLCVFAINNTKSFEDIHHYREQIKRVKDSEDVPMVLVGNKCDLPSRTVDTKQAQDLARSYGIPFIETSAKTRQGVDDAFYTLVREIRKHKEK
Sequence of KRAS G12D (P62937 whole entry): as the sequence (P62937 whole entry) above
A further experiment has as its target KRAS G13C (Homo sapiens, UniProt P01116+P62937, G13C). As to conditions: KRAS G13C; read-out: KRAS G13C FRET data IC50. The procedure, abridged:
as §2

A further experiment has as its target KRAS WT (Homo sapiens, UniProt P01116+P62937). As to conditions: KRAS WT; read-out: KRAS WT FRET data IC50. In a few lines:
as §2

Another experiment addresses KRAS G12S (Homo sapiens, UniProt P01116+P62937, G12S). Conditions: read-out: KRAS G12S FRET data, IC50. The procedure, abridged:
as §2

The target in another experiment is KRAS G13D (Homo sapiens, UniProt P01116+P62937, G13D). Conditions: KRAS G13D; read-out: KRAS G13D FRET data IC50. The procedure, abridged:
as §2

In another experiment the target is KRAS Q61H (Homo sapiens, UniProt P01116+P62937, Q61H). As to conditions: KRAS Q61H; read-out: KRAS Q61H FRET data IC50. The procedure, abridged: as §1
Sequence of KRAS Q61H (P01116 1-169 isoform P01116-2 Q61H limits assumed): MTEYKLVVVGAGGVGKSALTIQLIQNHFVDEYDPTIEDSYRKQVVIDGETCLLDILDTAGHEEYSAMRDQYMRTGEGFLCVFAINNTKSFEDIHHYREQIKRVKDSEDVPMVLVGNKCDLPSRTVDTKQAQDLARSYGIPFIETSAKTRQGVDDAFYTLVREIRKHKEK
Sequence of KRAS Q61H (P62937 whole entry): as the sequence (P62937 whole entry) above

Sequence of KRAS G13D (P01116 1-169 isoform P01116-2 G13D limits assumed): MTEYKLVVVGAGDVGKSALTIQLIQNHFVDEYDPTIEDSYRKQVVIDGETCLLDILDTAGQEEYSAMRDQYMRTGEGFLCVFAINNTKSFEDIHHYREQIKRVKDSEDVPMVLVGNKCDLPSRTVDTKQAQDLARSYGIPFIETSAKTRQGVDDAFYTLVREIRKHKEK
Sequence of KRAS G13D (P62937 whole entry): as the sequence (P62937 whole entry) above
Sequence of KRAS G12C (P01116 1-169 isoform P01116-2 G12C): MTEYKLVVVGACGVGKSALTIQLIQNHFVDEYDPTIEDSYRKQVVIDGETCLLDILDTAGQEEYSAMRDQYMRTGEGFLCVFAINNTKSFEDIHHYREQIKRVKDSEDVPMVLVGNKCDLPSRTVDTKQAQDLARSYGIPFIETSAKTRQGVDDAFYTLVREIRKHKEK
Sequence of KRAS G12C (P62937 whole entry): as the sequence (P62937 whole entry) above
Sequence of KRAS G12S (P01116 1-169 isoform P01116-2 G12S limits assumed): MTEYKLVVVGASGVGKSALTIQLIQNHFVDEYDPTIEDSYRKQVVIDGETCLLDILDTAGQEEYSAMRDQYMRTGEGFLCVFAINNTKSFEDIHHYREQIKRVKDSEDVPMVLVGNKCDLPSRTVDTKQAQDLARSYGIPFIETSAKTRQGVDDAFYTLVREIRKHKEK
Sequence of KRAS G12S (P62937 whole entry): as the sequence (P62937 whole entry) above
Sequence of KRAS G13C (P01116 1-169 isoform P01116-2 G13C): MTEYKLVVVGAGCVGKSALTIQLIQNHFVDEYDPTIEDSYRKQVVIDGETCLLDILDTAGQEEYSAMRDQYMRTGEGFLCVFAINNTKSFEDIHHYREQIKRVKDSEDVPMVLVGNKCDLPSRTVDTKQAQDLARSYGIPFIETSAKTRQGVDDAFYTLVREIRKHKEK
Sequence of KRAS G13C (P62937 whole entry): as the sequence (P62937 whole entry) above
Sequence of NRAS Q61R (P01111 whole entry Q61R): as the sequence (P01111 whole entry G12C) above, with C12G, Q61R counted along it
Sequence of NRAS Q61R (P62937 whole entry): as the sequence (P62937 whole entry) above
Sequence of KRAS WT (P01116 1-169 isoform P01116-2 limits assumed): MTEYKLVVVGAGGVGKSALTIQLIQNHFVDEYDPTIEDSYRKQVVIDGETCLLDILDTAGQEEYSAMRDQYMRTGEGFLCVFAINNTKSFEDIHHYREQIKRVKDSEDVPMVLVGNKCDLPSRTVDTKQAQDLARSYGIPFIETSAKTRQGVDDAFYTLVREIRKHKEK
Sequence of KRAS WT (P62937 whole entry): as the sequence (P62937 whole entry) above
Sequence of KRAS G12V (P01116 1-169 isoform P01116-2 G12V limits assumed): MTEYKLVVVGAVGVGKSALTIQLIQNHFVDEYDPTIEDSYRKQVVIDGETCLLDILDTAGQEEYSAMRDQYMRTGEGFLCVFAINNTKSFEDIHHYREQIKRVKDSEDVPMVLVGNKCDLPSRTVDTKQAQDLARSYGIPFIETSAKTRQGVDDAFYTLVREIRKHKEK
Sequence of KRAS G12V (P62937 whole entry): as the sequence (P62937 whole entry) above

Take `CO[C@@H](COC1CN(C(=O)C#CC(C)(C)N(C)C)C1)C(=O)N[C@H]1Cc2cccc(c2)-c2ccc3c(c2)c(c(-c2cccnc2[C@H](C)OC)n3CC(F)(F)F)CC(C)(C)COC(=O)[C@@H]2CCCN(N2)C1=O` [Example A556]: the IC50 at NRAS Q61R is above 10000 nM; on KRAS G12C, below 10 nM; at KRAS G12V, 1000 to 10000 nM; at NRAS G12C it was below 10 nM; on KRAS G12D, above 10000 nM; on KRAS G13C, 1000 to 10000 nM. Moreover, the half-inhibitory concentration (IC50) at KRAS WT was 1000 to 10000 nM; on KRAS G12S, above 10000 nM; at KRAS G13D, above 10000 nM.

In the case of `CCn1c(-c2cccnc2[C@H](C)OC)c2c3cc(ccc31)-c1csc(n1)C[C@H](NC(=O)[C@H](C(C)C)N(C)C(=O)N(C)C1CN(C(=O)/C=C/C(C)(C)O)C1)C(=O)N1CCC[C@H](N1)C(=O)OCC(C)(C)C2` (atropisomer, axis not shown) [Example A350], the IC50 lay within 10 to 100 nM on KRAS Q61H; 100 to 1000 nM at NRAS Q61R; 10 to 100 nM at KRAS G12C; 100 to 1000 nM on KRAS G12V; 10 to 100 nM on NRAS G12C; 1000 to 10000 nM on KRAS G12D. Also, the IC50 on KRAS G13C, at KRAS WT, on KRAS G12S and at KRAS G13D was 100 to 1000 nM throughout.

`C=CC(=O)N1CC[C@]2(C1)OCN(C(=O)N(C)[C@H](C(=O)N[C@H]1Cc3cccc(n3)-c3ccc4c(c3)c(c(-c3cccnc3[C@H](C)OC)n4CC)CC(C)(C)COC(=O)[C@@H]3CCCN(N3)C1=O)C(C)C)C2=O` (atropisomer, axis not shown) [Example A652]: the IC50 was 1000 to 10000 nM on KRAS Q61H; 1000 to 10000 nM at NRAS Q61R; 100 to 1000 nM on KRAS G12C; 1000 to 10000 nM at KRAS G12V; 100 to 1000 nM on NRAS G12C; above 10000 nM on KRAS G12D. The IC50 fell in the range of 100 to 1000 nM at KRAS G13C, 1000 to 10000 nM at KRAS WT, 1000 to 10000 nM at KRAS G12S and 1000 to 10000 nM at KRAS G13D.

On to `CCn1c(-c2cccnc2[C@H](C)OC)c2c3cc(ccc31)N1CCO[C@@](C)(CC(NC(=O)[C@H](C(C)C)N(C)C(=O)C3(F)CCN(C(=O)C#CC(C)(C)N(C)C)CC3)C(=O)N3CCC[C@H](N3)C(=O)OCC(C)(C)C2)C1` (some centres unmarked) [Example A550], for which the IC50 at KRAS Q61H is 1000 to 10000 nM; at NRAS Q61R it was 1000 to 10000 nM; at KRAS G12C, below 10 nM; on KRAS G12V it was 100 to 1000 nM; on NRAS G12C, below 10 nM; on KRAS G12D, 1000 to 10000 nM. Further, the IC50 at KRAS G13C was in the range of 100 to 1000 nM; on KRAS WT it was 100 to 1000 nM; on KRAS G12S, 1000 to 10000 nM; on KRAS G13D it was 1000 to 10000 nM.

Regarding `C=CC(=O)N1CCOC2(CCN(C(=O)N(C)[C@H](C(=O)N[C@H]3CN4CCC=C(C4)c4ccc5c(c4)c(c(-c4cccnc4[C@H](C)OC)n5CC)CC(C)(C)COC(=O)[C@@H]4CCCN(N4)C3=O)C(C)C)CC2)C1` [Example A563], the IC50 at KRAS Q61H was 1000 to 10000 nM; on NRAS Q61R, above 10000 nM; on KRAS G12C it was 100 to 1000 nM; on KRAS G12V, 1000 to 10000 nM; on NRAS G12C, 100 to 1000 nM; at KRAS G12D, above 10000 nM. In addition, the 50% inhibitory concentration (IC50) fell in the range of 100 to 1000 nM at KRAS G13C, 1000 to 10000 nM at KRAS WT, 1000 to 10000 nM at KRAS G12S and 1000 to 10000 nM on KRAS G13D.

Turning to `C=CC(=O)N1CC[C@H](C(=O)N(C)[C@H](C(=O)N[C@H]2Cc3cc(O)cc(c3)-c3ccc4c(c3)c(c(-c3ccnc5c3[C@@H](OC)CC5)n4CC)CC(C)(C)COC(=O)[C@@H]3CCCN(N3)C2=O)C(C)C)C1` [Example A275], the IC50 was in the range of 10 to 100 nM at KRAS Q61H; 100 to 1000 nM on NRAS Q61R; 10 to 100 nM on KRAS G12C; 10 to 100 nM at KRAS G12V; 10 to 100 nM at NRAS G12C; 100 to 1000 nM at KRAS G12D. Also, the IC50 at KRAS G13C fell in the range of 10 to 100 nM; at KRAS WT it was 100 to 1000 nM; at KRAS G12S it was 10 to 100 nM; on KRAS G13D, 100 to 1000 nM.

In the case of `C=CC(=O)N1CC[C@@H](N(C)C(=O)N(C)[C@H](C(=O)N[C@H]2Cc3nc(cs3)-c3ccc4c(c3)c(c(-c3cccnc3[C@H](C)OC)n4CC)CC(C)(C)COC(=O)[C@@H]3CCCN(N3)C2=O)C(C)C)C1` [Example A349], the IC50 lay in the range of 10 to 100 nM at KRAS Q61H; 100 to 1000 nM on NRAS Q61R; 10 to 100 nM on KRAS G12C; 100 to 1000 nM at KRAS G12V; 10 to 100 nM on NRAS G12C; 100 to 1000 nM at KRAS G12D. Also, the half-inhibitory concentration (IC50) at KRAS G13C, at KRAS WT, on KRAS G12S and at KRAS G13D was 100 to 1000 nM each time.

`CCn1c(-c2cccnc2[C@H](C)OC)c2c3cc(ccc31)-c1cccc(c1)C[C@H](NC(=O)[C@H](C(C)C)N1CC[C@]3(CCN(C(=O)C#C[C@]4(N(C)C)CCOC4)C3)C1=O)C(=O)N1CCC[C@H](N1)C(=O)OCC(C)(C)C2` [Example A559]: the IC50 at KRAS Q61H lay within 100 to 1000 nM; on NRAS Q61R, 1000 to 10000 nM; at KRAS G12C, 10 to 100 nM; on KRAS G12V, 1000 to 10000 nM; at NRAS G12C, 10 to 100 nM; on KRAS G12D, 1000 to 10000 nM. Also, the IC50 at KRAS G13C lay within 100 to 1000 nM; at KRAS WT it was 1000 to 10000 nM; on KRAS G12S it was 1000 to 10000 nM; at KRAS G13D, 1000 to 10000 nM.

For `C=CC(=O)N1CC[C@H](C(=O)N(C)[C@H](C(=O)N[C@H]2Cc3nsc(n3)-c3ccc4c(c3)c(c(-c3cccnc3[C@H](C)OC)n4CC)CC(C)(C)COC(=O)[C@@H]3CCCN(N3)C2=O)C(C)C)C1` (atropisomer, axis not shown) [Example A694], the IC50 at KRAS Q61H was 100 to 1000 nM; on NRAS Q61R, 1000 to 10000 nM; at KRAS G12C, 100 to 1000 nM; on KRAS G12V, 1000 to 10000 nM; at NRAS G12C, 100 to 1000 nM; at KRAS G12D, 1000 to 10000 nM. The IC50 was 100 to 1000 nM on KRAS G13C, 1000 to 10000 nM at KRAS WT, 1000 to 10000 nM on KRAS G12S and 1000 to 10000 nM at KRAS G13D.

Turning to `C=CC(=O)N(C)C1CCN(C(=O)N(C)[C@H](C(=O)N[C@H]2Cc3nc(cs3)-c3ccc4c(c3)c(c(-c3cccnc3[C@H](C)OC)n4CC)CC(C)(C)COC(=O)[C@@H]3CCCN(N3)C2=O)C(C)C)C1` (some centres unmarked) [Example A384], the IC50 on KRAS Q61H was 10 to 100 nM; at NRAS Q61R, 100 to 1000 nM; at KRAS G12C it was 10 to 100 nM; on NRAS G12C, 10 to 100 nM; on KRAS G13D, 100 to 1000 nM.

Regarding `CCn1c(-c2cccnc2[C@H](C)OC)c2c3cc(ccc31)N1CCO[C@@H](C[C@H](NC(=O)[C@H](C(C)C)N(C)C(=O)[C@@]3(F)CCN(C(=O)C#CC(C)(C)N4CCC4)C3)C(=O)N3CCC[C@H](N3)C(=O)OCC(C)(C)C2)C1` [Example A726], the IC50 was above 10000 nM at NRAS Q61R; 1000 to 10000 nM at KRAS G12V; 10 to 100 nM at NRAS G12C; above 10000 nM on KRAS G12D; 100 to 1000 nM at KRAS G13C; 1000 to 10000 nM at KRAS WT. Further, on KRAS G12S, the IC50 lay within 1000 to 10000 nM.

Values taken from patent US20230233569A1 (Revolution Medicines, Inc., priority 2020, published 2023).
